Test results: patent US12605305B2, “Application of citrate metal salt in endodontic treatment, and formulation obtained by preparation” (KUNMING QINGCHENG HEALTHCARE TECH LTD., priority 2020, dated 2026)
“Also recorded” adds a separate entry of the source. Read-outs that look alike come from different tables or passages of the source.

Assays:
[1] = Compatibility of cationic antibacterial agent with sodium citrate solution; type: physicochemical; conditions: for Phenomenon (compatibility with sodium citrate solution): 20% sodium citrate solution mixed 1:1 with 0.2% agent solution, room temperature, dark, 7 days
Method: (§1) Materials to be tested: sodium citrate, potassium citrate, lithium citrate, citric acid, EDTA-2Na.
(§2) Each of the citric acid metal salts to be tested was prepared as a 20% aqueous solution; the citric acid to be tested was prepared as a 20% aqueous solution; the EDTA-2Na to be tested was prepared as a 10% aqueous solution; and the cationic antibacterial agent to be tested was prepared as a 0.2% aqueous solution. Each of the prepared aqueous solutions of citrate metal salt (or citric acid aqueous solutions) was mixed with each of the prepared aqueous solutions of cationic antibacterial agent to be tested at a ratio of 1:1.
(§3) All the mixed solutions were stored at room temperature in dark and left standing for 7 days before observation.

[2] = Compatibility of cationic antibacterial agent with potassium citrate solution; type: physicochemical; conditions: for Phenomenon (compatibility with potassium citrate solution): 20% potassium citrate solution mixed 1:1 with 0.2% agent solution, room temperature, dark, 7 days
Method: as §1, §2, §3

[3] = Compatibility of cationic antibacterial agent with lithium citrate solution; type: physicochemical; conditions: for Phenomenon (compatibility with lithium citrate solution): 20% lithium citrate solution mixed 1:1 with 0.2% agent solution, room temperature, dark, 7 days
Method: as §1, §2, §3

[4] = Compatibility of cationic antibacterial agent with citric acid solution; type: physicochemical; conditions: 20% citric acid solution mixed 1:1 with 0.2% agent solution, room temperature, dark, 7 days
Method: as §1, §2, §3

[5] = Compatibility of cationic antibacterial agent with EDTA-2Na solution; type: physicochemical; conditions: 10% EDTA-2Na solution mixed 1:1 with 0.2% agent solution, room temperature, dark, 7 days
Method: as §1, §2, §3

[6] = cited from earlier work
[7] = Evaluation of the effect of removing smear layer in vitro (SEM of treated root canal specimens)
Excerpt: Healthy single premolars that need to be extracted for the purpose of clinical orthodontic extraction. Patient age: 14-25 years old. Inclusion criteria: single upright unobstructed root canal, fully developed apical foramen, no near-pulp caries or near-pulp fillings, no history of pulp therapy, no apical root resorption, no root fracture, and other defects, and no periodontal disease.
The soft tissue and calculus around the root of the isolated teeth were removed. The isolated teeth were cleaned and packed for high-temperature and high-pressure steam sterilization. Three sterilized isolated teeth were taken randomly and placed in 10 ml of BHI liquid culture medium, cultured at 37° C. for 24 h, and then taken out. With the naked eye, if the BHI liquid culture medium remains transparent, it is considered that the sterilization effect is reliable. If the BHI liquid culture medium is turbid, it is necessary to re-disinfect all samples and repeat the above steps. After confirmation of successful sterilization, the samples were stored at room temperature for later use.
The pulp chamber of the isolated teeth confirmed to be successfully sterilized was opened using a high-speed hand-piece with an emery ball bit with a diameter of 0.5 mm. After pulp extirpation, the root canal was dredged with an ISO standard #10 stainless steel hand K file, until the file tip that just penetrated the apical foramen was seen. The file was measured for length, from which 0.5 mm was subtracted to establish the working length of the root canal. Then the root canal preparation was performed using a Protaper Universal Engine with Nickel-titanium root canal file to 25/06. […]

[8] = root canal treated for 5 minutes

Compound | Phenomenon (compatibility with sodium citrate solution) [1] | Phenomenon (compatibility with potassium citrate solution) [2] | Phenomenon (compatibility with lithium citrate solution) [3] | Phenomenon (compatibility with citric acid solution) [4] | Phenomenon (compatibility with EDTA-2Na solution) [5] | pH value ([6]; 5% citric acid solution) | pH value ([6]; 10% citric acid solution) | compatibility with sodium citrate (conclusion in words) [1] | compatibility with potassium citrate (conclusion in words) [2] | compatibility with lithium citrate (conclusion in words) [3] | effect of removing the smear layer [7, 8] | effect of removing the smear layer ([7]; treatment time as per figures (1, 5 and/or 10 min) or not stated)
CC(=O)O.CC(=O)O.NC(=N\CCCCCC/N=C(N)/N=C(\N)Nc1ccc(Cl)cc1)/N=C(\N)Nc1ccc(Cl)cc1 [chlorhexidine acetate, reference compound] | + | + | + | + | + |  |  |  |  |  |  | 
N=C(NCCCCCCNC(=N)NC(=N)Nc1ccc(Cl)cc1)NC(=N)Nc1ccc(Cl)cc1.O=C(O)[C@H](O)[C@@H](O)[C@H](O)[C@H](O)CO.O=C(O)[C@H](O)[C@@H](O)[C@H](O)[C@H](O)CO [chlorhexidine gluconate, reference compound] | + | + | + | + | + |  |  |  |  |  |  | 
O=C(O)CC(O)(CC(=O)O)C(=O)O [citric acid] |  |  |  |  |  | 1.93 | 1.91 |  |  |  |  | 
CCCCCCCCCCCC[N+](C)(C)Cc1ccccc1.[Br-] [dodecyl dimethyl benzyl ammonium bromide] | − | − | − | − | − |  |  | compatible | compatible | compatible |  | 
CCCCCCCCCCCC[N+](C)(C)Cc1ccccc1.[Cl-] [dodecyl dimethyl benzyl ammonium chloride] | − | − | − | − | − |  |  | compatible | compatible | compatible |  | 
CCCCCCCCCCCC[N+](C)(C)C.[Cl-] [dodecyl trimethyl ammonium chloride] | − | − | − | − | − |  |  | compatible | compatible | compatible |  | 
CCCCCCCCCCCCCCCC[n+]1ccccc1.[Cl-] [hexadecyl pyridinium chloride, reference compound] | − | − | − | − | − |  |  | compatible | compatible | compatible |  | 
O=P([O-])([O-])OP(=O)([O-])[O-].[K+].[K+].[K+].[K+] [potassium pyrophosphate] |  |  |  |  |  |  |  |  |  |  | could not improve the effect of the formulation on removing the smear layer | 
O=P(O)(O)OP(=O)(O)OP(=O)(O)O [sodium tripolyphosphate] |  |  |  |  |  |  |  |  |  |  | not helpful for sodium citrate to improve the effect of removing the smear layer | cannot be effective in removing the smear layer; also recorded: very poor effect of removing the smear layer
N-cocoyl-L-arginine ethyl ester-DL-pyrrolidone carboxylate | + | + | + | + | + |  |  |  |  |  |  | 
polydimethyl diallyl ammonium chloride | − | − | − | − | − |  |  | compatible | compatible | compatible |  | 
polyhexamethyl guanidine hydrochloride | + | + | + | + | + |  |  |  |  |  |  | 
polyhexamethylene biguanide hydrochloride | + | + | + | + | + |  |  |  |  |  |  | 
